Measurements published in PubChem BioAssay (NCI).
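Following 48 hours of exposure in 96-well plates, responses at five concentrations were used to interpolate endpoints linearly. GI50 is the concentration that inhibits growth by half. TGI: concentration producing complete growth inhibition.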

Tests used:
Assay in all cases: DTP human tumour cell line panel, 48 h
PC-3 prostate = system: PC-3 prostate
HT29 colon = system: HT29 colon
SF-295 CNS = system: SF-295 CNS
OVCAR-4 ovarian = system: OVCAR-4 ovarian
HCC-2998 colon = system: HCC-2998 colon
T-47D breast = system: T-47D breast
NCI-H522 lung = system: NCI-H522 lung
OVCAR-8 ovarian = system: OVCAR-8 ovarian
MDA-MB-435 = system: MDA-MB-435
EKVX NSCLC = system: EKVX NSCLC
MDA-MB-231 breast = system: MDA-MB-231 breast
IGROV1 ovarian = system: IGROV1 ovarian
RXF 393 renal = system: RXF 393 renal
SW-620 colon = system: SW-620 colon
SNB-75 CNS = system: SNB-75 CNS
ACHN renal = system: ACHN renal
SR leukemia = system: SR leukemia
HCT-116 colon = system: HCT-116 colon
COLO 205 colon = system: COLO 205 colon
HS 578T breast = system: HS 578T breast
NCI/ADR-RES ovarian = system: NCI/ADR-RES ovarian
UO-31 renal = system: UO-31 renal
MOLT-4 leukemia = system: MOLT-4 leukemia
K-562 leukemia = system: K-562 leukemia
M14 melanoma = system: M14 melanoma
NCI-H226 lung = system: NCI-H226 lung
UACC-257 melanoma = system: UACC-257 melanoma
CCRF-CEM leukemia = system: CCRF-CEM leukemia
UACC-62 melanoma = system: UACC-62 melanoma
A549 NSCLC = system: A549 NSCLC
DU-145 prostate = system: DU-145 prostate
KM12 colon = system: KM12 colon
SF-539 CNS = system: SF-539 CNS
LOX IMVI melanoma = system: LOX IMVI melanoma
SK-OV-3 ovarian = system: SK-OV-3 ovarian
SF-268 CNS = system: SF-268 CNS
SK-MEL-28 melanoma = system: SK-MEL-28 melanoma
MALME-3M melanoma = system: MALME-3M melanoma
786-0 renal = system: 786-0 renal
HOP-62 NSCLC = system: HOP-62 NSCLC
SN12C renal = system: SN12C renal
HCT-15 colon = system: HCT-15 colon
HOP-92 NSCLC = system: HOP-92 NSCLC
BT-549 breast = system: BT-549 breast
SK-MEL-2 melanoma = system: SK-MEL-2 melanoma
SNB-19 CNS = system: SNB-19 CNS
A498 renal = system: A498 renal
OVCAR-5 ovarian = system: OVCAR-5 ovarian
CAKI-1 renal = system: CAKI-1 renal
OVCAR-3 ovarian = system: OVCAR-3 ovarian
NCI-H23 lung = system: NCI-H23 lung
NCI-H460 lung = system: NCI-H460 lung
TK-10 renal = system: TK-10 renal
U251 CNS = system: U251 CNS
SK-MEL-5 melanoma = system: SK-MEL-5 melanoma
HL-60(TB) leukemia = system: HL-60(TB) leukemia
RPMI-8226 leukemia = system: RPMI-8226 leukemia
MCF7 breast = system: MCF7 breast

Structure (SMILES): CC(C)N1CCN(Cc2ccc3c(NNC(=O)c4ccccc4)nc4cc(F)ccc4n23)CC1
- GI50 (PC-3 prostate): 402 nM
- TGI (PC-3 prostate): 12700 nM
- GI50 (HT29 colon): 673 nM
- TGI (HT29 colon): 7460 nM
- GI50 (SF-295 CNS): 277 nM
- TGI (SF-295 CNS): 1690 nM
- GI50 (OVCAR-4 ovarian): 293 nM
- TGI (OVCAR-4 ovarian): 7710 nM
- GI50 (HCC-2998 colon): 699 nM
- TGI (HCC-2998 colon): 6450 nM
- GI50 (T-47D breast): 419 nM
- TGI (T-47D breast): 11700 nM
- GI50 (NCI-H522 lung): 532 nM
- TGI (NCI-H522 lung): 5050 nM
- GI50 (OVCAR-8 ovarian): 381 nM
- TGI (OVCAR-8 ovarian): 27400 nM
- GI50 (MDA-MB-435): 655 nM
- TGI (MDA-MB-435): 15100 nM
- GI50 (EKVX NSCLC): 172 nM
- TGI (EKVX NSCLC): 6790 nM
- GI50 (MDA-MB-231 breast): 497 nM
- TGI (MDA-MB-231 breast): 2480 nM
- GI50 (IGROV1 ovarian): 406 nM
- TGI (IGROV1 ovarian): 14100 nM
- GI50 (RXF 393 renal): 792 nM
- TGI (RXF 393 renal): 8870 nM
- GI50 (SW-620 colon): 463 nM
- TGI (SW-620 colon): 2120 nM
- GI50 (SNB-75 CNS): 451 nM
- TGI (SNB-75 CNS): 7240 nM
- GI50 (ACHN renal): 90.2 nM
- TGI (ACHN renal): 12000 nM
- GI50 (SR leukemia): 185 nM
- TGI (SR leukemia): 6830 nM
- GI50 (HCT-116 colon): 238 nM
- TGI (HCT-116 colon): 1450 nM
- GI50 (COLO 205 colon): 273 nM
- TGI (COLO 205 colon): 3470 nM
- GI50 (HS 578T breast): 4230 nM
- TGI (HS 578T breast): 26900 nM
- GI50 (NCI/ADR-RES ovarian): 237 nM
- TGI (NCI/ADR-RES ovarian): 4530 nM
- GI50 (UO-31 renal): 68.8 nM
- TGI (UO-31 renal): 3140 nM
- GI50 (MOLT-4 leukemia): 240 nM
- TGI (MOLT-4 leukemia): 2040 nM
- GI50 (K-562 leukemia): 379 nM
- TGI (K-562 leukemia): 3870 nM
- GI50 (M14 melanoma): 230 nM
- TGI (M14 melanoma): 3280 nM
- GI50 (NCI-H226 lung): 534 nM
- TGI (NCI-H226 lung): 8180 nM
- GI50 (UACC-257 melanoma): 810 nM
- TGI (UACC-257 melanoma): 11900 nM
- GI50 (CCRF-CEM leukemia): 146 nM
- TGI (CCRF-CEM leukemia): 4090 nM
- GI50 (UACC-62 melanoma): 388 nM
- TGI (UACC-62 melanoma): 2670 nM
- GI50 (A549 NSCLC): 465 nM
- TGI (A549 NSCLC): 8470 nM
- GI50 (DU-145 prostate): 629 nM
- TGI (DU-145 prostate): 13300 nM
- GI50 (KM12 colon): 397 nM
- TGI (KM12 colon): 11000 nM
- GI50 (SF-539 CNS): 403 nM
- TGI (SF-539 CNS): 1820 nM
- GI50 (LOX IMVI melanoma): 198 nM
- TGI (LOX IMVI melanoma): 1540 nM
- GI50 (SK-OV-3 ovarian): 338 nM
- TGI (SK-OV-3 ovarian): 15300 nM
- GI50 (SF-268 CNS): 355 nM
- TGI (SF-268 CNS): 12700 nM
- GI50 (SK-MEL-28 melanoma): 599 nM
- TGI (SK-MEL-28 melanoma): 4580 nM
- GI50 (MALME-3M melanoma): 575 nM
- TGI (MALME-3M melanoma): 2400 nM
- GI50 (786-0 renal): 323 nM
- TGI (786-0 renal): 6010 nM
- GI50 (HOP-62 NSCLC): 176 nM
- TGI (HOP-62 NSCLC): 13700 nM
- GI50 (SN12C renal): 529 nM
- TGI (SN12C renal): 12800 nM
- GI50 (HCT-15 colon): 56.3 nM
- TGI (HCT-15 colon): 3910 nM
- GI50 (HOP-92 NSCLC): 678 nM
- TGI (HOP-92 NSCLC): 15300 nM
- GI50 (BT-549 breast): 629 nM
- TGI (BT-549 breast): 12100 nM
- GI50 (SK-MEL-2 melanoma): 2780 nM
- TGI (SK-MEL-2 melanoma): 20800 nM
- GI50 (SNB-19 CNS): 537 nM
- TGI (SNB-19 CNS): 8070 nM
- GI50 (A498 renal): 564 nM
- TGI (A498 renal): 4120 nM
- GI50 (OVCAR-5 ovarian): 674 nM
- TGI (OVCAR-5 ovarian): 6830 nM
- GI50 (CAKI-1 renal): 249 nM
- TGI (CAKI-1 renal): 6260 nM
- GI50 (OVCAR-3 ovarian): 289 nM
- TGI (OVCAR-3 ovarian): 6790 nM
- GI50 (NCI-H23 lung): 930 nM
- TGI (NCI-H23 lung): 8940 nM
- GI50 (NCI-H460 lung): 128 nM
- TGI (NCI-H460 lung): 1400 nM
- GI50 (TK-10 renal): 216 nM
- TGI (TK-10 renal): 23900 nM
- GI50 (U251 CNS): 296 nM
- TGI (U251 CNS): 2010 nM
- GI50 (SK-MEL-5 melanoma): 921 nM
- TGI (SK-MEL-5 melanoma): 3110 nM
- GI50 (HL-60(TB) leukemia): 322 nM
- TGI (HL-60(TB) leukemia): 1430 nM
- GI50 (RPMI-8226 leukemia): 476 nM
- TGI (RPMI-8226 leukemia): 3180 nM
- GI50 (MCF7 breast): 341 nM
- TGI (MCF7 breast): 1480 nM
